From patent US20110190280A1, “Thiazole And Oxazole Kinase Inhibitors” (priority 2007, published 2011) come the findings set out here.

One assay addresses B-Raf (Homo sapiens, UniProt P15056). The experiment in a line: B-Raf Accelerated MEK ATPase assay (BRAMA). Type of assay: biochemical. Particulars: BRAMA enzyme assay; class by pIC50; read-out: B-Raf Activity. The method, boiled down:
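B-Raf activity read as intrinsic MEK ATPase: catalytic activated RAF with non-phosphorylated MEK drives ADP formation, coupled through pyruvate kinase and lactate dehydrogenase to NADH oxidation, independent of ERK phosphorylation.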

A further assay concerns the target EGFR (Homo sapiens, UniProt P00533). The experiment in a line: EGFR kinase autophosphorylation assay (peptide phosphorylation, HTRF). The assay is classed as biochemical. The following applies: 0.8 nM EGFR, class by pIC50. As to the method:
(§1) A selection of compounds of the present invention were tested for inhibitory activity against EGFR and ErbB2 kinases in autophosphorylation assays.
(§2) The method measures the ability of the isolated enzyme to catalyse the transfer of the gamma-phosphate from ATP onto the tyrosine residue of a biotinylated synthetic peptide referenced “Peptide C” in Brignola, P. S., et al, (2002) J. Biol. Chem. 277(2):1576-1585. The extent of tyrosine phosphorylation was measured using an anti-phosphotyrosine antibody, and quantified by homogenous time-resolved fluorescence (HTRF).
(§3) Reactions were performed in black 384-well polystyrene flat-bottom plates in a final volume of 20 ul. Assays were performed by adding 10 μl of each of the following solutions, substrate Mix and enzyme mix: The Substrate mix contained 100 mM 3-[N-morpholino]propanesulfonic acid (MOPS) (pH 7.5), 2 mM MnCl2, 20 μM ATP, 0.01% Tween-20, 0.1 mg/mL (BSA), 0.8 uM peptide substrate, and 1 mM dithiothreitol. The enzyme mix contained 100 mM MOPS (pH7.5); 0.01% Tween-20; 0.1 mg/mL BSA, and either 0.8 nM EGFR, 10 nM ErbB2, or 1 nM ErbB4
(§4) The enzyme mix was added to the compound plates and the plates were incubated at 20° C. for 1 hour. The reactions were allowed to proceed for 90 minutes at 20° C. The reactions were then terminated by the addition of 20 μl 100 mM EDTA to each well. 40 μl/well of HTRF detection mix were added to the assay plates. The final concentrations of the detection reagents were: 100 mM HEPES (pH7.5), 0.1 mg/mL BSA, 15 nM streptavidin-labeled allophycocyanin (PerkinElmer), and 1 nM europium-labeled anti-phosphotyrosine antibody (PerkinElmer). Assay plates were left unsealed and were counted in a Wallac Multilabel Counter 1420 (PerkinElmer).
(§5) Compounds under analysis were dissolved in Me2SO to 1.0 mM and serially diluted 1 to 3 with Me2SO through twelve dilutions. 1 μl of each concentration was transferred to the corresponding well of an assay plate. This creates a final compound concentration range from 0.00027 to 47.6 μM.
(§6) The data for dose responses were plotted as % Inhibition calculated with the data reduction formula 100*(1−(U1−C2)/(C1−C2)) versus concentration of compound where U is the unknown value, C1 is the average control value obtained for 4.76% DMSO, and C2 is the average control value obtained for 0.035 M EDTA. Data were fitted with a curve described by:
(§7) where Vmax is the upper asymptote, Y2 is the Y intercept, and K is the IC50. The results for each compound were recorded as pIC50s, calculated as follows: […]
(§8) In the following table: • “+” indicates no pIC50 measurement greater than 6 against EGFR or ErbB2, • “++” indicates at least one pIC50 measurement greater than 6 against EGFR or ErbB2 but no measurement greater than pIC50 of 7; and • “+++” indicates at least one pIC50 measurement of greater than 7 against EGFR or ErbB2.
For orientation: In TR-FRET formats the signal depends on donor and acceptor labels being close together.

For another assay, the target named is ErbB2 (Homo sapiens, UniProt P04626). The experiment in a line: ErbB2 kinase autophosphorylation assay (peptide phosphorylation, HTRF). The assay is classed as biochemical. The following applies: 10 nM ErbB2, HTRF; class by pIC50. As to the method: as §1, §2, §3, §4, §5, §6, §7, §8
The test system of a further assay is A375P tumor cells. Put plainly: Cell growth inhibition assay (CellTiter-Glo), A375P.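 Further: total ATP luminescence used as proxy for cell number, serial threefold compound dilutions at 0.2% DMSO, growth inhibition expressed versus DMSO vehicle-treated wells.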 Particulars: Homo sapiens, 72 h, read-out: Activity in A375P Tumor Cells. A general note: In ATP-based viability assays light output follows the ATP content of the culture.
The next assay concerns HT-29 tumor cells. The experiment in a line: Cell growth inhibition assay (CellTiter-Glo), HT-29.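 Further: ATP content read by luminescence as proxy for cell number, growth inhibition versus DMSO vehicle wells, 0.2% DMSO final, nine serial threefold compound dilutions.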 The following applies: Homo sapiens, HT-29, 72 h, read-out: Activity in HT-29 Tumor Cells.
Another assay has as its system Colo205 tumor cells. The experiment in a line: Cell growth inhibition assay (CellTiter-Glo), Colo205.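 Further: growth measured via total ATP luminescence (CellTiter-Glo) as a proxy for cell number, inhibition expressed against DMSO-treated control wells, 3-day exposure at 0.2% final DMSO.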 The following applies: Homo sapiens, COLO 205, 72 h, read-out: Activity in Colo205 Tumor Cells.
Another assay concerns SK-MEL-3 tumor cells. Put plainly: Cell growth inhibition assay (CellTiter-Glo), SK-MEL-3.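 Further: human melanoma cells grown with compound for 3 days in 0.2% DMSO, total ATP read by luminescence as proxy for cell number, growth inhibition versus DMSO-treated wells.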 Particulars: Homo sapiens, SK-MEL3, 72 h, read-out: Activity in SK-MEL-3 Tumor Cells.
The subject of another assay is SK-MEL-28 tumor cells. The experiment in a line: Cell growth inhibition assay (CellTiter-Glo), SK-MEL-28.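 Further: luminescent total ATP as a proxy for cell number, threefold serial dilutions at 0.2% DMSO, percent growth inhibition versus DMSO vehicle control wells.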 Particulars: Homo sapiens, SK-MEL-28, 72 h, read-out: Activity in SK-MEL-28 Tumor Cells.

Chain of ErbB2 (P04626 23-1255): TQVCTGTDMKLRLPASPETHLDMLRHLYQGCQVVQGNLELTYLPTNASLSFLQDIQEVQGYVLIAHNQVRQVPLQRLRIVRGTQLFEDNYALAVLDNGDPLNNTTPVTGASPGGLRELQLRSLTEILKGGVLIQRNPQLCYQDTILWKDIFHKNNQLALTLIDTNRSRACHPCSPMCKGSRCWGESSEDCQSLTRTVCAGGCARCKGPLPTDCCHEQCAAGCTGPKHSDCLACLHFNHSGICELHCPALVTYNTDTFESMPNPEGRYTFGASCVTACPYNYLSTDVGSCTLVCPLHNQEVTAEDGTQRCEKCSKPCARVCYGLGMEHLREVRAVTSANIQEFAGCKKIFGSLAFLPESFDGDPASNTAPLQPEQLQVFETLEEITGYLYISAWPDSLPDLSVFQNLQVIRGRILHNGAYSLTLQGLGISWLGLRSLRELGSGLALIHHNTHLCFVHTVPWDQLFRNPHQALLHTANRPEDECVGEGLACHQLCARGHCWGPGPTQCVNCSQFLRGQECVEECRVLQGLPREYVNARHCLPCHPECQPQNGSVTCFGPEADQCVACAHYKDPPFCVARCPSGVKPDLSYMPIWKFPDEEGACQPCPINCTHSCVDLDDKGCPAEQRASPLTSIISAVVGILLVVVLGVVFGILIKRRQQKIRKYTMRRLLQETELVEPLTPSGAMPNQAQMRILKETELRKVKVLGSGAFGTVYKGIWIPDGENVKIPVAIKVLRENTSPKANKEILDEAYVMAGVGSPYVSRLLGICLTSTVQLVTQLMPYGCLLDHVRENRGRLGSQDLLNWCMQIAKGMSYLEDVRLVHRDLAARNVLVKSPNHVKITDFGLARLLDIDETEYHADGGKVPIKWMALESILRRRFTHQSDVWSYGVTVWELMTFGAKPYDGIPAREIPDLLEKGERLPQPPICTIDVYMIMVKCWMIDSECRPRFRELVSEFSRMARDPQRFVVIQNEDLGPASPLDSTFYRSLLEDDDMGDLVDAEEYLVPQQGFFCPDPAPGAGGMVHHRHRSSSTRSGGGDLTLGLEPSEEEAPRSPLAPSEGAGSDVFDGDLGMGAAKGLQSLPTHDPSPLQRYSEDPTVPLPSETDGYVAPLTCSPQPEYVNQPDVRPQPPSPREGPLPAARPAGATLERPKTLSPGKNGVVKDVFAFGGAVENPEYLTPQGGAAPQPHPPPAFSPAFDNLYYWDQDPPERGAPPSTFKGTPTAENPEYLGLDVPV
Chain of B-Raf (P15056 whole entry): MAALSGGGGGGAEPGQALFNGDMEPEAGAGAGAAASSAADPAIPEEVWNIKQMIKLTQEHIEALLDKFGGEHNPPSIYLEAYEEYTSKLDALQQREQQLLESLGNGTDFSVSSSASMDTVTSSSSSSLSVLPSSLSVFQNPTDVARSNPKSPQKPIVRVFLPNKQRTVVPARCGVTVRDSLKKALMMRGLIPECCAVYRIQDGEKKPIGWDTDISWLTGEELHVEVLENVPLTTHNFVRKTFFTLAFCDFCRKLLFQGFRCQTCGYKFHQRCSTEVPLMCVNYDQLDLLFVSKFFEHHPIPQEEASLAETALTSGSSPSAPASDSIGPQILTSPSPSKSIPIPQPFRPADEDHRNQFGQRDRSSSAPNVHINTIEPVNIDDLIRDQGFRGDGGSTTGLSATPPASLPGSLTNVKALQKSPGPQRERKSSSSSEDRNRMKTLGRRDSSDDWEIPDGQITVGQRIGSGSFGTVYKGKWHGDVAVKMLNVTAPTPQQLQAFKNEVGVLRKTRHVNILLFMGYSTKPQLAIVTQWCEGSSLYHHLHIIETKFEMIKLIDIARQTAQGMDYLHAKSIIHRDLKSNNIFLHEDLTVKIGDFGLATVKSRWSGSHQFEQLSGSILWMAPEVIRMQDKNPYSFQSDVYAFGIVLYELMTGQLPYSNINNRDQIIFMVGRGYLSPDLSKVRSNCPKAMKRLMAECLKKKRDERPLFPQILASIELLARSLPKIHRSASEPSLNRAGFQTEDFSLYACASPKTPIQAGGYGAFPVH
Chain of EGFR (P00533 25-1210): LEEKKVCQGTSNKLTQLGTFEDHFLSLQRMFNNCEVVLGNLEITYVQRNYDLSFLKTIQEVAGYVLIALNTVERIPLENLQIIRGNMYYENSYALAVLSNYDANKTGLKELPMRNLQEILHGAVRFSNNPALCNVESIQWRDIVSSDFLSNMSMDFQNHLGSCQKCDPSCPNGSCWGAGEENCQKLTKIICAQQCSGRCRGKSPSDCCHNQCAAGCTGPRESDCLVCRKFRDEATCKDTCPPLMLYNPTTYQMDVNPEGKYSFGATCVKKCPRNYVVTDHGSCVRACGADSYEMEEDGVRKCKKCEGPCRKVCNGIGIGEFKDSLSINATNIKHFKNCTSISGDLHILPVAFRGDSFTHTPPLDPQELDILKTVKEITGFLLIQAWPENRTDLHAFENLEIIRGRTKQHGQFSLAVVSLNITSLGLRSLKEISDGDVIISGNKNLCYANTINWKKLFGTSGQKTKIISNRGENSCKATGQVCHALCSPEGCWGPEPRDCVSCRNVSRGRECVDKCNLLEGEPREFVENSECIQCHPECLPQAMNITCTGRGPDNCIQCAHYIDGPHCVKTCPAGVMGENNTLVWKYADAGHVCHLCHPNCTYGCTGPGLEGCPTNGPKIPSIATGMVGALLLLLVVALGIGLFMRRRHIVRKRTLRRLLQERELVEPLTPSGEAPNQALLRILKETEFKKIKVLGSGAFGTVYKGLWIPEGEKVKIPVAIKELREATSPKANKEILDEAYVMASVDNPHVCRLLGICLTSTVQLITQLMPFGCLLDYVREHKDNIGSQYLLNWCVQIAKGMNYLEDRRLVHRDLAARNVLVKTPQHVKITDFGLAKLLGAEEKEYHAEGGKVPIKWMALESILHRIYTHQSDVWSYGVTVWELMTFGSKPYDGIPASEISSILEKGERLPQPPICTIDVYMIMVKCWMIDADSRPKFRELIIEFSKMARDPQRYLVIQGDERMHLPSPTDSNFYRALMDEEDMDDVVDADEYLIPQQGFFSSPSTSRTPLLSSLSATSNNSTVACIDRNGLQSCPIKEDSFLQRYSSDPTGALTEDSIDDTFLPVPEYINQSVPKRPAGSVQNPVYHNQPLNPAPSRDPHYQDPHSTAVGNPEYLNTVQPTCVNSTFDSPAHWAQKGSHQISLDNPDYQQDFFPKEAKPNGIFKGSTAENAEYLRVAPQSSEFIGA

On to `CCNc1nc(-c2cc(C)cc(OC)c2)c(-c2ccnc(Nc3ccc(N4CCOCC4)c(F)c3)n2)s1` [Example 28, 4-{2-(Ethylamino)-4-[3-methyl-5-(methyloxy)phenyl]-1,3-thiazol-5-yl}-N-[3-fluoro-4-(4-morpholinyl)phenyl]-2-pyrimidinamine], for which the IC50 on B-Raf is less than 100 nM; at EGFR it was more than 1000 nM; at ErbB2, more than 1000 nM; in the assay on A375P tumor cells, less than 500 nM; with HT-29 tumor cells, less than 500 nM; in the assay on Colo205 tumor cells it was less than 500 nM. Also, the IC50 with SK-MEL-3 tumor cells and in the assay with SK-MEL-28 tumor cells was less than 500 nM throughout.

Regarding `COc1cc(C)cc(-c2nc(C(C)C)sc2-c2ccnc(Nc3ccc(N4CCN(C(C)=O)CC4)nc3)n2)c1` [Example 63, N-[6-(4-Acetyl-1-piperazinyl)-3-pyridinyl]-4-{2-(1-methylethyl)-4-[3-methyl-5-(methyloxy)phenyl]-1,3-thiazol-5-yl}-2-pyrimidinamine], the IC50 on B-Raf was less than 100 nM; on EGFR, more than 1000 nM; against ErbB2 it was more than 1000 nM; in the assay on A375P tumor cells, less than 500 nM; with HT-29 tumor cells, less than 500 nM; in the assay on Colo205 tumor cells it was less than 500 nM. For the same compound, the IC50 with SK-MEL-3 tumor cells and in the assay on SK-MEL-28 tumor cells was less than 500 nM each time.

In the case of `CCNc1nc(-c2cc(C)cc(OC)c2)c(-c2ccnc(Nc3ccc(N4CCOCC4)nc3)n2)s1` [Example 35, 4-{2-(Ethylamino)-4-[3-methyl-5-(methyloxy)phenyl]-1,3-thiazol-5-yl}-N-[6-(4-morpholinyl)-3-pyridinyl]-2-pyrimidinamine], the IC50 on B-Raf is less than 100 nM; at EGFR, more than 1000 nM; against ErbB2 it was more than 1000 nM; in the assay on A375P tumor cells, less than 500 nM; in the assay on HT-29 tumor cells it was less than 500 nM; in the assay on Colo205 tumor cells it was less than 500 nM. The IC50 with SK-MEL-3 tumor cells and in the assay on SK-MEL-28 tumor cells was less than 500 nM each time.

As for `CCNc1nc(-c2cc(C)cc(OC)c2)c(-c2ccnc(Nc3ccc(N4CCN(C(=O)COC)CC4)nc3)n2)s1` [Example 37, 4-{2-(Ethylamino)-4-[3-methyl-5-(methyloxy)phenyl]-1,3-thiazol-5-yl}-N-(6-{4-[(methyloxy)acetyl]-1-piperazinyl}-3-pyridinyl)-2-pyrimidinamine], the IC50 at B-Raf is less than 100 nM; on EGFR, more than 1000 nM; on ErbB2, more than 1000 nM; in the assay on A375P tumor cells it was less than 500 nM; in the assay on HT-29 tumor cells, less than 500 nM; in the assay with Colo205 tumor cells, less than 500 nM. Also, the IC50 with SK-MEL-3 tumor cells and with SK-MEL-28 tumor cells was less than 500 nM in each case.

Consider `COc1cc(C)cc(-c2nc(C(C)C)sc2-c2ccnc(Nc3ccc(N4CCOCC4)nc3)n2)c1` [Example 61, 4-{2-(1-Methylethyl)-4-[3-methyl-5-(methyloxy)phenyl]-1,3-thiazol-5-yl}-N-[6-(4-morpholinyl)-3-pyridinyl]-2-pyrimidinamine], for which the IC50 on B-Raf was less than 100 nM; on EGFR it was more than 1000 nM; against ErbB2, more than 1000 nM; in the assay on A375P tumor cells, less than 500 nM; in the assay with HT-29 tumor cells, less than 500 nM; in the assay on Colo205 tumor cells, less than 500 nM. In addition, the IC50 with SK-MEL-3 tumor cells was less than 500 nM; in the assay on SK-MEL-28 tumor cells it was 500 to 5000 nM.

Regarding `CCNc1nc(-c2cc(OC)cc(OC)c2)c(-c2ccnc(Nc3ccc(OC4CCN(CCO)CC4)c(F)c3)n2)o1` [Example 124], the IC50 is less than 100 nM on B-Raf; more than 1000 nM at EGFR; more than 1000 nM at ErbB2; 500 to 5000 nM with A375P tumor cells; less than 500 nM in the assay on HT-29 tumor cells; 500 to 5000 nM with Colo205 tumor cells. Also, the IC50 in the assay with SK-MEL-3 tumor cells was less than 500 nM; in the assay with SK-MEL-28 tumor cells, 500 to 5000 nM.

For the compound `CCNc1nc(-c2cccc(OC)c2)c(-c2ccnc(Nc3ccc(OCCN4CCCC4)c(F)c3)n2)s1` [Example 72, 4-{2-(Ethylamino)-4-[3-(methyloxy)phenyl]-1,3-thiazol-5-yl}-N-(3-fluoro-4-{[2-(1-pyrrolidinyl)ethyl]oxy}phenyl)-2-pyrimidinamine], the IC50 on B-Raf is less than 100 nM; against EGFR it was less than 100 nM; against ErbB2, less than 100 nM; with A375P tumor cells, less than 500 nM; with HT-29 tumor cells, less than 500 nM; with Colo205 tumor cells, less than 500 nM. The IC50 in the assay on SK-MEL-3 tumor cells was less than 500 nM; in the assay with SK-MEL-28 tumor cells, 500 to 5000 nM.
